Usually IC50 stands for the point on the concentration scale where inhibition reaches its midpoint. A lower IC50 goes with greater potency.

In this test the test system is TNF-α. Kind of test: Whole bovine blood assay, LPS-induced TNF-α. The format is cell-based. To be noted: fresh whole bovine blood, LPS stimulant; top drug concentration 250 μM. The procedure:
Whole Blood Assay-Fresh whole bovine blood samples were collected into heparinized vacutainer tubes. Assay plates were prepared with 25 μL of drug diluted in PBS at varying concentration in 96 round bottom wells, then 225 μL of blood was added and plates incubated at 37° C. for 4 hours. Cells were stimulated with LPS (or PBS for controls) by adding 25 μL to the plates at a final concentration of 1 μg/mL and incubated at 37° C. for 18 hours. To collect plasma, plates were centrifuged at 2,000×g for 10 minutes and 100 μL of supernatant was transferred to a 96 well polypropylene plate that was sealed and stored at −80° C. Samples were assayed for cytokines using the Meso Scale Discovery (MSD) platform (described below). This same MSD platform was used to assess cytokines in the plasma collected directly from drug treated animals.
Cytokine Detection—An MSD U-Plex cytokine assay was developed following the MSD U-Plex protocol guide and included biotinylated capture antibodies against: bovine Interleukin (IL)-1β (Biorad), bovine IL-6 (R&D Systems) and bovine tumor necrosis factor (TNF)-α (R&D Systems). […] Assay calibrators (Kingfisher) were diluted to a concentration of […] in control lithium heparin plasma, followed by 4-fold serial dilutions into plasma. […] Antibodies were used at the following concentrations: anti-IL-1β at 1 μg/mL, anti-IL-6 at 1 μg/mL and anti-TNF-α at 0.5 μg/mL. Cytokines were quantified according to manufacturer's instructions using a chemiluminescent readout. In brief, 0.5 mL of all biotinylated antibodies were diluted to 10 μg/mL with Diluent 100 and paired to their respective linkers by adding 750 μL of supplied Linker solution and incubated for 30 minutes followed by addition of Stop solution for another 30 minutes. The linked antibodies were then diluted 10-fold into Stop solution. Plates were coated by adding 50 μL of antibody solutions per well and incubated covered and shaking for 1 hour at room temperature. Plates were washed three times with PBS/Tween20 prior to samples or standards being added at 30 μL per well and incubated as above. Plates were washed three times before detection antibodies were added along with 2% goat and rabbit serum to block and incubated same as above. Plates were washed a further three times before addition of 150 μL 2X Read buffer and read immediately on the SI6000 instrument (MSD). For soluble protein levels, a BCA protein kit (Thermofisher) was used. The cytokine concentrations (pg/mL) were normalized to the total protein levels for each sample. [Bassel et. al., BMC Veterinary Research (2020) 16:168]
Therefore, a fresh whole bovine blood assay was developed with LPS as a stimulant (TLR-4 agonist) and with IL-1β and TNF-α as the read-out. Compounds of the invention were evaluated against a positive control for their ability to inhibit LPS-induced IL-1β and TNF-α as an overall evaluation of relative potency and modulation of target pathways.
TNFα is a cell signaling protein, cytokine, that plays a key role in both acute and chronic inflammation. In the bovine whole blood in vitro screening assay the inhibition of TNFα as induced by stimulation by lipopolysaccharide (LPS) and as measured by half the maximal inhibitory concentration (IC50) is recognized as the primary biomarker of immunomodulation potency upon pretreatment with the compounds of the invention. IL-1 B is a mediator of the inflammation response and is involved in a number of cellular activities including proliferation, differentiation and apoptosis. IL-1ß is also released upon cellular stress or cytotoxicity or upon TLR stimulation. […] In order to estimate a therapeutic index from the in vitro assay a differential between the TNFα IC50 (immunomodulation potency) versus the perceived cellular toxicity concentration (IL-1β release or overstimulation) was utilized.
Molecule `CC[C@H]1OC(=O)[C@H](C)[C@@H](O[C@H]2C[C@@](C)(OC)[C@](O)(CNCCOC)[C@H](C)O2)[C@H](C)[C@@H](O[C@@H]2O[C@H](C)C[C@H](N(C)S(=O)(=O)Nc3ccc(C(F)(F)F)cc3)[C@H]2O)[C@](C)(O)C[C@@H](C)CN[C@H](C)[C@@H](O)[C@]1(C)O` [Example B-84] displayed an IC50 of 51 µM. This counts as double-digit micromolar.

`CC[C@H]1OC(=O)[C@H](C)[C@@H](O[C@H]2C[C@@](C)(OC)[C@](O)(CN3CCCCC3)[C@H](C)O2)[C@H](C)[C@@H](O[C@@H]2O[C@H](C)C[C@H](N(C)S(=O)(=O)Nc3ccc(I)cc3)[C@H]2O)[C@](C)(O)C[C@@H](C)CN[C@H](C)[C@@H](O)[C@]1(C)O` [Example C-30] gave an IC50 of 9 µM. For the molecule `CC[C@H]1OC(=O)[C@H](C)[C@@H](O[C@H]2C[C@@](C)(OC)[C@](O)(CN3CCCCC3)[C@H](C)O2)[C@H](C)[C@@H](O[C@@H]2O[C@H](C)C[C@H](N(C)S(=O)(=O)Nc3ccccc3)[C@H]2Oc2ccc(F)cc2)[C@](C)(O)C[C@@H](C)CN[C@H](C)[C@@H](O)[C@]1(C)O` [Example C-51], the IC50 came out at 9 µM. The molecule `CC[C@H]1OC(=O)[C@H](C)[C@@H](O[C@H]2C[C@@](C)(OC)[C@](O)(CNCC3CC3)[C@H](C)O2)[C@H](C)[C@@H](O[C@@H]2O[C@H](C)C[C@H](N(C)S(=O)(=O)c3ccc(Cl)cc3)[C@H]2O)[C@](C)(O)C[C@@H](C)CN[C@H](C)[C@@H](O)[C@]1(C)O` [Example B-24] gave an IC50 of 10 µM. Under `CC[C@H]1OC(=O)[C@H](C)[C@@H](O[C@H]2C[C@@](C)(OC)[C@](O)(CN3CCCCC3)[C@H](C)O2)[C@H](C)[C@@H](O[C@@H]2O[C@H](C)C[C@H](N(C)S(=O)(=O)Nc3ccc(Br)cc3)[C@H]2O)[C@](C)(O)C[C@@H](C)CN[C@H](C)[C@@H](O)[C@]1(C)O` [Example C-29] stands 14 µM; under `CC[C@H]1OC(=O)[C@H](C)[C@@H](O[C@H]2C[C@@](C)(OC)[C@](O)(CNC3CCCC3)[C@H](C)O2)[C@H](C)[C@@H](O[C@@H]2O[C@H](C)C[C@H](N(C)S(=O)(=O)c3ccc(Cl)cc3)[C@H]2O)[C@](C)(O)C[C@@H](C)CN[C@H](C)[C@@H](O)[C@]1(C)O` [Example B-22], 9 µM; under `CC[C@H]1OC(=O)[C@H](C)[C@@H](O[C@H]2C[C@@](C)(OC)[C@](O)(CN3CCc4ccccc4C3)[C@H](C)O2)[C@H](C)[C@@H](O[C@@H]2O[C@H](C)C[C@H](N(C)S(=O)(=O)c3ccc(Cl)cc3)[C@H]2O)[C@](C)(O)C[C@@H](C)CN[C@H](C)[C@@H](O)[C@]1(C)O` [Example C-10], 23 µM.

For the molecule `CCOCCNC[C@]1(O)[C@H](C)O[C@@H](O[C@H]2[C@H](C)[C@@H](O[C@@H]3O[C@H](C)C[C@H](N(C)S(=O)(=O)Nc4ccc(C(F)(F)F)cc4)[C@H]3O)[C@](C)(O)C[C@@H](C)CN[C@H](C)[C@@H](O)[C@](C)(O)[C@@H](CC)OC(=O)[C@@H]2C)C[C@@]1(C)OC` [Example B-83], the midpoint of inhibition, the IC50, lay at 30 µM.

Take `CC[C@H]1OC(=O)[C@H](C)[C@@H](O[C@H]2C[C@@](C)(OC)[C@](O)(CNCCCOC)[C@H](C)O2)[C@H](C)[C@@H](O[C@@H]2O[C@H](C)C[C@H](N(C)S(=O)(=O)Nc3ccc(C(F)(F)F)cc3)[C@H]2O)[C@](C)(O)C[C@@H](C)CN[C@H](C)[C@@H](O)[C@]1(C)O` [Example B-78]: the IC50 is 21 µM. The IC50 values of the last two molecules are within 1.5-fold of each other. Under `CC[C@H]1OC(=O)[C@H](C)[C@@H](O[C@H]2C[C@@](C)(OC)[C@](O)(CN3CCCCC3)[C@H](C)O2)[C@H](C)[C@@H](O[C@@H]2O[C@H](C)C[C@H](N(C)S(=O)(=O)Nc3ccc(Cl)c(C(F)(F)F)c3)[C@H]2O)[C@](C)(O)C[C@@H](C)CN[C@H](C)[C@@H](O)[C@]1(C)O` [Example C-31] stands 8 µM; under `CC[C@H]1OC(=O)[C@H](C)[C@@H](O[C@H]2C[C@@](C)(OC)[C@](O)(CN3CCCCC3)[C@H](C)O2)[C@H](C)[C@@H](O[C@@H]2O[C@H](C)C[C@H](N(C)S(=O)(=O)Nc3ccccc3)[C@H]2Oc2ccccc2)[C@](C)(O)C[C@@H](C)CN[C@H](C)[C@@H](O)[C@]1(C)O` [Example C-52], 15 µM.

Values taken from US20250236616A1, “IMMUNOMODULATING AZALIDES” (Zoetis Services LLC, priority 2021, published 2025).
